The source of these data is patent US10660789B2, “1,4-dihydropyridine derivatives with HSP modulating activity” (Richter Gedeon NYRT., priority 2011, dated 2020).

The subject of one data set is other Hsps. The experiment in a line: Other in vitro HSP modulating effects (Table 3). The data set is classed as cell-based, mouse and human. More on the design: key: +: co-inducing activity; −: silencing activity; 0: with the experimental methods applied no other HSP modulating effects could be identified. The protocol:
(§1) The Hsp co-inducing effect of the compounds on stress response was tested on B16 mouse melanoma and SHSY5Y human neuroblastoma cell lines stably transfected with Hsp promoter probing plasmids. This kind of promoter probing, using the promoter region of a given gene conjugated with fluorescent protein is used as a best and fastest test system for finding drugs which modulate the activity of the gene followed by the given promoter (Wyshocka et al., Mol. Cel. Biochem. 215:153-156, 2000).
(§2) Reporter plasmids, containing the Hsp70 and/or Hsp25 promoter conjugated to either YFP or GFP (yellow or green fluorescent protein), were stably transfected into the cells and the expression of YFP or GFP was followed by flow cytometry. Cells were either kept at 37° C. or exposed to heat shock at 42° C. for 1 hour followed by a 16 hour recovery period at 37° C. in the presence or absence of different concentrations of the test compound. After recovery the expression of YFP or GFP which is in straight correlation with the promoter activity of Hsp70 or Hsp27 genes was followed by measuring the fluorescence intensity of the cells by flow cytometry. Fluorescence intensity is in straight correlation with the amount of fluorescent protein (GFP or YFP) produced under the control of hsp promoter. The mean fluorescence intensity of YFP or GFP produced is shown as “Hsp promoter activity”.
(§3) Cells were homogenously distributed on 6-well plates in 1×10^5 cells/well density. B16-pHsp25-GFP and B16-pHsp70-YFP melanoma cells were grown in RPMI-1640 medium supplemented with 10% Fetal bovine serum (FBS), penicillin (200 units/ml), streptomycin (200 μg/ml) and 2 mM L-Glutamine. For maintaining the SH-SY5Y-pHsp25-GFP and SH-SY5YpHsp70-YFP neuroblastoma cell lines Dulbecco's modified Eagle's medium (DMEM-F-12) containing 10% FBS, 2 mM L-Glutamine, penicillin (200 units/ml), streptomycin (200 μg/ml) and MEM non-essential amino acids were used. Before the treatments both cell lines were incubated at 37° C. in a saturated humidity atmosphere containing 95% air and 5% CO2. After 24 h incubation cells were pretreated with compounds of the invention in four different concentrations (usually in 3; 10; 20 and 50 μM) 30 min before the heat shock at 42° C. for 1 h and then incubated further at 37° C. for 16 h (recovery period). After this procedure cells were trypsinized and suspensed in 500 μl serum-free DMEM-F12 medium. The changes in cells' fluorescence were detected using BD FACSCalibur flow cytometer.
SY-SY5Y and B16 cells were extracted in NP-40 lysis buffer (PBS pH 7.4, 1% protease inhibitor coctail and 1% Triton X-100). The cell extracts were then constantly agitated at 4° C. for 2 h. The cell extracts were centrifuged at 12000×g for 30 min and supernatants were saved. After the protein concentration measurement 15 μg of total protein was separated by sodium dodecyl sulfate-polyacrylamide gel electrophoresis (SDS-PAGE) under reducing conditions according to the method of Laemmli. Proteins were blotted onto PVDF membrane. The blot was incubated overnight at 4° C. in the presence of mouse α-Hsp25, α-Hsp70, α-Hsp60 és α-Hsp90 monoclonal antibodies diluted in PBS. Then, the membrane was washed three times in PBS-0.05% Tween and incubated for 1 h in peroxidase-conjugated anti-mouse IgG antibody diluted 1:50000 in PBS containing 3% non-fat dry milk. The immune complexes were detected with chemo-luminescent substrate of peroxidase according to the supplier's instructions. Images taken from the membranes were analyzed using AlphaEase FC software.

Another data set concerns B16 melanoma cells. The experiment in a line: Experimental metastatic melanoma, B16 cells i.v. in C57Bl/6 mice. Format: in vivo, mouse. The method, then:
The anticancer activity was tested in C57Bl/6 mouse (B6), the best known syngeneic mouse model of experimental metastatic melanoma. C57Bl/6 mice injected with B16 melanoma cells subcutaneously or intramuscularly develop primary tumors that, in a part of the recipients, give rise to lung metastases. When the B16 cells are injected intravenously via the tail vein, a fraction of the tumor cells homes directly in the lung, where they develop into multiple independent tumor nodules termed “experimental metastases”. Although lung tumors are the most prominent, brain, liver and kidney tumors are also detectable in intravenously injected mice. Since the behavior of the tumor-bearing mice is quite uniform, the model is suitable for simultaneous testing of high numbers of drug candidates in a limited number of experimental animals.
The in vivo tumor experiments were performed with cultured B16 cells that were previously re-isolated from lung metastatic nodules, therefore their metastatic potential was kept optimal. The tumor cells liberated from the tumor mass by trypsin digestion were expanded in cell culture and stored in aliquots in liquid nitrogen, while the number of in vitro passages was kept to a minimum. In the experiments, B6 mice were injected with 100 000 B16 melanoma cells i.v. via the tail vein. The drug candidates were dissolved in physiological saline then they were administered i.p. in a volume of 100 ul. Daily treatment of tumor bearing mice started at day 7 after the tumor injection. The body weight of the mice was measured at day 1, 7, 14 and 21. The survival of the tumor bearing mice was recorded daily. All experiments were performed in accordance with national and European animal welfare guidelines. To prevent unnecessary suffering, moribund mice were euthanized.

For the next data set, the system named is Hsp70 promoter. Kind of data set: Hsp promoter probing, Hsp70 promoter-YFP reporter, flow cytometry (Table 3). Also on record: key: +: co-inducing activity; −: silencing activity; 0: with the experimental methods applied no other HSP modulating effects could be identified. The data set is classed as cell-based, mouse and human. The conditions noted are these: heat shock 42° C. 1 h, 16 h recovery; B16 or SHSY5Y reporter cells, cell line per value not stated. The protocol:
as §1
The Hsp encoding genes are transactivated through the binding of HSF to the heat shock element found on the DNA upstream of the Hsp genes, in the so called promoter region. In the absence of heat stress, the heat shock factors are present as monomers. Upon heat stress, however, the heat shock factors form trimers, which are the active components, able to bind to heat shock elements. Once HSF is bound to the heat shock element in the promoter of Hsp genes, the gene following the promoter region is transcriptionally active.
as §2, §3
Background: In flow cytometry, cells or beads pass a laser one at a time.

Take `COC(=O)C1=C(C)N(C)C(CCN(C)C)=C(C(=O)OC)C1c1ccc(C(F)(F)F)cc1.Cl` (centres unmarked) [Example 14, Dimethyl 2-(2-dimethylaminoethyl)-1,6-dimethyl-4-(4-trifluoromethylphenyl)-1,4-dihydropyridine-3,5-dicarboxylate hydrochloride]: the “Other in vitro effects” value in the data set with other Hsps is on record as 0. In addition, in the data set on B16 melanoma cells (10 mg/kg i.p. daily from day 7 to day 29), the “Increase in life span” value was determined as 18%. The same compound returned a Mean survival time with B16 melanoma cells (10 mg/kg i.p. daily from day 7 to day 29, control 25.25+/−4.13 days) of 29.91 ± 3.78 days. In the data set with B16 melanoma cells (10 mg/kg i.p. daily, tumor bearing mice), the “drug-related mortality and weight loss” value is given as “did not produce drug-related mortality or weight loss”. Moreover, the In vivo efficacy entry in the data set on B16 melanoma cells (model in which efficacy was shown) is reported as “Cancer mono-”.
Usually melting point stands for the temperature, or range, at which the solid turns liquid. As for `COC(=O)C1=C(C)N(C)C(C)=C(C(=O)OC)C1c1cc(F)cc(F)c1` [Example 24, Dimethyl 4-(3,5-difluorophenyl)-1,2,6-trimethyl-1,4-dihydropyridine-3,5-dicarboxylate], the melting point was 167 to 168 °C. Moreover, the Hsp70 modulation result in the data set with Hsp70 promoter is listed as “+”. Further, the “Other in vitro effects” value in the data set on other Hsps is on record as 0.
In the same order, the values of `COC(=O)C1=C(C)N(C)C(CCN(C)C)=C(C(=O)OC)C1c1cc(F)cc(F)c1.Cl` (centres unmarked) [Example 26, Dimethyl 4-(3,5-difluorophenyl)-2-(2-dimethylamino-ethyl)-1,6-dimethyl-1,4-dihydropyridine-3,5-dicarboxylate hydrochloride] are 201 to 203 °C, “+” and 0.
In the same order, the values of `CCOC(=O)C1=C(C)N(C)C(C)=C(C(=O)OC)C1c1ccc(C(F)(F)F)cc1` (centres unmarked) [Example 32] are 146 to 149 °C, “+” and 0.
Take `CCOC(=O)C1=CN(C2CC2)C=C(C(=O)OCC)C1c1ccc(C(F)(F)F)cc1` [Example 33, Diethyl 1-cyclopropyl-4-(4-trifluoromethylphenyl)-1,4-dihydro-pyridine-3,5-dicarboxylate]: the melting point lay within 123 to 124 °C. Also, the Hsp70 modulation result in the data set with Hsp70 promoter is listed as “+”. Further, the “Other in vitro effects” value with other Hsps was 0.
In the same order, the values of `CCOC(=O)C1=CN(Cc2ccccc2)C=C(C(=O)OCC)C1c1ccc(C(F)(F)F)cc1` [Example 34] are 107 to 108 °C, “+” and 0.
In the same order, the values of `CCOC(=O)C1=CN(C)C=C(C(=O)OCC)C1c1ccc(C(F)(F)F)cc1` [Example 37, Diethyl 1-methyl-4-(4-trifluoromethylphenyl)-1,4-dihydropyridine-3,5-dicarboxylate] are 94 to 96 °C, “+” and 0.
In the same order, the values of `O=C(O)C1=CN(Cc2ccccc2)C=C(C(=O)O)C1c1ccccc1` [Example 39, 1-Benzyl-4-phenyl-1,4-dihydropyridine-3,5-dicarboxylic acid] are 204 to 206 °C, “−” and 0.
Turning to `COC(=O)C1=C(C)N(C)C(CCN2CCc3ccccc3C2)=C(C(=O)OC)C1c1ccc(C(F)(F)F)cc1.O=C(O)/C=C/C(=O)O` (centres unmarked) [Example 40, Dimethyl 2-[2-(1,2,3,4-tetrahidroisoquinolin-2-yl)-ethyl]-1,6-dimethyl-4-(4-trifluoromethyl-phenyl)-1,4-dihydropyridine-3,5-dicarboxylate fumarate], the melting point lay within 186 to 188 °C. The Hsp70 modulation entry in the data set on Hsp70 promoter is “+”. The “Other in vitro effects” value in the data set with other Hsps is given as 0.
As for `COC(=O)C1=C(C)N(C)C(CCN2CCc3cc(OC)c(OC)cc3C2)=C(C(=O)OC)C1c1ccc(C(F)(F)F)cc1.Cl` (centres unmarked) [Example 41, Dimethyl 2-[2-(6,7-dimethoxy-1,2,3,4-tetrahydroisoquinolin-2-yl)-ethyl]-1,6-dimethyl-4-(4-trifluoromethylphenyl)-1,4-dihydropyridine-3,5-dicarboxylate hydrochloride], the melting point is 176 to 181 °C. Besides, in the data set on Hsp70 promoter, the Hsp70 modulation entry was “+”. For the same compound, the “Other in vitro effects” value in the data set with other Hsps is on record as 0.
For the compound `COC(=O)C1=C(C)N(C)C(C)=C(C(=O)OC)C1c1ccco1` [Example 44, Dimethyl 4-(furan-2-yl-1,2,6-trimethyl-1,4-dihydropyridine-3,5-dicarboxylate], the melting point was 142 to 143 °C. Also, the Hsp70 modulation result with Hsp70 promoter is listed as “+”. For the same compound, the “Other in vitro effects” value with other Hsps was determined as 0.
In the same order, the values of `COC(=O)C1=C(C)N(C)C(C)=C(C(=O)OC)C1c1ccsc1` [Example 45, Dimethyl 1,2,6-Trimethyl-4-(thiophen-3-yl)-1,4-dihydropyridine-3,5-dicarboxylate] are 187 to 189 °C, “+” and 0.
The compound `COC(=O)C1=C(C)N(C)C(C#N)=C(C(=O)OC)C1c1ccc(C(F)(F)F)cc1` (centres unmarked) [Example 47, Dimethyl 2-cyano-1,6-dimethyl-4-(4-trifluoromethylphenyl)-1,4-dihydropyridine-3,5-dicarboxylate] gave a melting point of 129 to 132 °C. Besides, the Hsp70 modulation result in the data set with Hsp70 promoter was “+”. Besides, in the data set with other Hsps, the “Other in vitro effects” value came out at 0.
